# Source: the supplement of paper PMC10307832
# What was measured:
# Experiment in all cases: relative viability (nuclei count vs DMSO), 5 days (fraction); higher = more cells survive
# [1] = compound: C1=CC2=NC=CN=C2C=C1/C=C/3\C(=O)NC(=O)S3 + CS(=O)(=O)CCNCc1ccc(-c2ccc3ncnc(Nc4ccc(OCc5cccc(F)c5)c(Cl)c4)c3c2)o1 [Lapatinib] (partner 2 µM)
# Summary of the method: (§1)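 A single step with final 0.05% Triton X-100, 1% formaldehyde and 1 ug/ml Hoechst fixed the cells and stained nuclei 5 days after treatment. Lung cancer cell lines in 1536-well plates had been treated by pin tool the day after seeding with one drug alone or a fixed anchor-drug dose plus five library-drug doses (not always all listed) in √10 steps, and nuclei were counted on 4× images. Relative viability is the ratio of nuclei in treated wells to nuclei in vehicle wells, taken as the median of duplicate plates.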
# [2] = compound: C1=CC2=NC=CN=C2C=C1/C=C/3\C(=O)NC(=O)S3 + CS(=O)(=O)N1CCN(Cc2cc3nc(-c4cccc5[nH]ncc45)nc(N4CCOCC4)c3s2)CC1 [Pictilisib] (partner 1 µM)
# Summary of the method: as §1
# [3] = compound: C1=CC2=NC=CN=C2C=C1/C=C/3\C(=O)NC(=O)S3 + CC(=O)Nc1cccc(-n2c(=O)n(C3CC3)c(=O)c3c(Nc4ccc(I)cc4F)n(C)c(=O)c(C)c32)c1 [Trametinib] (partner 0.02 µM)
# Summary of the method: as §1
# BGJ398 + Trametinib = compound: CCN1CCN(c2ccc(Nc3cc(N(C)C(=O)Nc4c(Cl)c(OC)cc(OC)c4Cl)ncn3)cc2)CC1 [BGJ398] + CC(=O)Nc1cccc(-n2c(=O)n(C3CC3)c(=O)c3c(Nc4ccc(I)cc4F)n(C)c(=O)c(C)c32)c1 [Trametinib] (partner 0.02 µM)
# Summary of the method: as §1
cell line,measurement,setting,value
UMC-11,relative viability,[1]; first compound 0.02 µM,1.02
same,relative viability,[1]; first compound 0.06325 µM,1.15
same,relative viability,[1]; first compound 0.2 µM,1.19
same,relative viability,[1]; first compound 0.6325 µM,1.02
same,relative viability,[1]; first compound 2 µM,1.37
same,relative viability,[2]; first compound 0.02 µM,0.839
same,relative viability,[2]; first compound 0.06325 µM,0.914
same,relative viability,[2]; first compound 0.2 µM,0.882
same,relative viability,[2]; first compound 0.6325 µM,0.786
same,relative viability,[2]; first compound 2 µM,0.952
same,relative viability,[3]; first compound 0.02 µM,0.697
same,relative viability,[3]; first compound 0.06325 µM,0.792
same,relative viability,[3]; first compound 0.2 µM,0.75
same,relative viability,[3]; first compound 0.6325 µM,0.663
same,relative viability,[3]; first compound 2 µM,0.81
same,relative viability,BGJ398 + Trametinib; first compound 0.01 µM,0.671
same,relative viability,BGJ398 + Trametinib; first compound 0.03162 µM,0.749
same,relative viability,BGJ398 + Trametinib; first compound 0.1 µM,0.808
same,relative viability,BGJ398 + Trametinib; first compound 0.3162 µM,0.622
same,relative viability,BGJ398 + Trametinib; first compound 1 µM,0.55
